According to patent US20080261811A1, “Synergistic Mixtures Exhibiting Insecticidal and Fungicidal Action” (Bayer CropScience AG, priority 2004, published 2008):

Legend:
Myzus persicae = Myzus persicae test (cabbage leaf dip); assay type: in vivo; settings: for Kill in % after 1 day: Table A1; for Kill in % after 6 days: Table A2
Source text: (§1) The expected activity for a given combination of two active compounds can be calculated (cf. COLBY, S. R.; “Calculating Synergistic and Antagonistic Responses of Herbicide Combinations”, Weeds 15, pages 20-22, 1967):
(§2) if • X=the kill rate, expressed in % of the untreated control, when employing active compound A at an application rate of m ppm, • Y=the kill rate, expressed in % of the untreated control, when employing active compound B at an application rate of n ppm, • E=the kill rate, expressed in % of the untreated control, when employing active compounds A and B at application rates of m and n ppm, then
(§3) If the actual insecticidal kill rate is higher than the calculated one, the kill rates of the combination are superadditive, i.e. a synergistic effect is present. In this case, the kill rate that is actually observed has to be higher than the value, calculated using the formula above, for the expected kill rate (E).
(§4) To produce a suitable preparation of active compound, 1 part by weight of active compound is mixed with the stated amounts of solvent and emulsifier, and the concentrate is diluted with emulsifier-containing water to the desired concentration.
Cabbage leaves (Brassica oleracea) which are heavily infested by the green peach aphid (Myzus persicae) are treated by being dipped into the preparation of active compound of the desired concentration.
After the desired period of time, the kill in % is determined. 100% means that all aphids have been killed; 0% means that none of the aphids have been killed. The determined kill rates are entered into Colby's formula.

Phaedon cochleariae = Phaedon cochleariae larvae test (cabbage leaf dip); assay type: in vivo; settings: for Kill in % after 4 days: Table B1; for Kill in % after 6 days: Table B2
Source text: as §1, §2, §3, §4
Cabbage leaves (Brassica oleracea) are treated by being dipped into the preparation of active compound of the desired concentration and populated with larvae of the mustard beetle (Phaedon cochleariae) while the leaves are still moist.
After the desired period of time, the kill in % is determined. 100% means that all beetle larvae have been killed; 0% means that none of the beetle larvae have been killed. The determined kill rates are entered into Colby's formula.

With `CN/C(=N\[N+](=O)[O-])NCc1cnc(Cl)s1` [clothianidin] the “Kill in % after 1 day” value (Myzus persicae; 0.8 ppm) was 45%, the “Kill in % after 6 days” value (Myzus persicae; 0.8 ppm) was 35% and the “Kill in % after 4 days” value (Phaedon cochleariae; 4 ppm) was 40%. For the same compound, the “Kill in % after 6 days” value (Phaedon cochleariae; 4 ppm) was 60%.
For `COC(=O)[C@@H](C)N(C(=O)Cc1ccccc1)c1c(C)cccc1C` [benalaxyl M, methyl N-(phenylacetyl)-N-(2,6-xylyl)-D-alaninate], the “Kill in % after 6 days” value (Myzus persicae; 500 ppm) was 0% and the “Kill in % after 6 days” value (Phaedon cochleariae; 500 ppm) was 0%.
`COCC(=O)N(c1c(C)cccc1C)C(C)C(=O)OC` (stereo not shown) [metalaxyl] was tested, and the “Kill in % after 1 day” value (Myzus persicae; 500 ppm) was 0%.
In the case of `COC(=O)C(C)N(C(=O)Cc1ccccc1)c1c(C)cccc1C` (stereo not shown) [benalaxyl], the “Kill in % after 6 days” value (Phaedon cochleariae; 500 ppm) is reported as 0%.
In the case of `COCC(=O)N(c1c(C)cccc1C)[C@H](C)C(=O)OC` [metalaxyl M], the “Kill in % after 1 day” value (Myzus persicae; 500 ppm) is reported as 0% and the “Kill in % after 4 days” value (Phaedon cochleariae; 500 ppm) is reported as 0%.
